Results published in ChEMBL document CHEMBL1201862, “PubChem BioAssay data set” (2004).
Activity calls are given as the source filed them.

What was measured:
Coagulation factor XII = target: T1, Coagulation factor XII (Homo sapiens, UniProt P00748); experiment: activated coagulation factor XII inhibitor potency, concentration-effect curve, cell-free (AID 716); assay type: functional
T1 sequence (P00748 whole entry): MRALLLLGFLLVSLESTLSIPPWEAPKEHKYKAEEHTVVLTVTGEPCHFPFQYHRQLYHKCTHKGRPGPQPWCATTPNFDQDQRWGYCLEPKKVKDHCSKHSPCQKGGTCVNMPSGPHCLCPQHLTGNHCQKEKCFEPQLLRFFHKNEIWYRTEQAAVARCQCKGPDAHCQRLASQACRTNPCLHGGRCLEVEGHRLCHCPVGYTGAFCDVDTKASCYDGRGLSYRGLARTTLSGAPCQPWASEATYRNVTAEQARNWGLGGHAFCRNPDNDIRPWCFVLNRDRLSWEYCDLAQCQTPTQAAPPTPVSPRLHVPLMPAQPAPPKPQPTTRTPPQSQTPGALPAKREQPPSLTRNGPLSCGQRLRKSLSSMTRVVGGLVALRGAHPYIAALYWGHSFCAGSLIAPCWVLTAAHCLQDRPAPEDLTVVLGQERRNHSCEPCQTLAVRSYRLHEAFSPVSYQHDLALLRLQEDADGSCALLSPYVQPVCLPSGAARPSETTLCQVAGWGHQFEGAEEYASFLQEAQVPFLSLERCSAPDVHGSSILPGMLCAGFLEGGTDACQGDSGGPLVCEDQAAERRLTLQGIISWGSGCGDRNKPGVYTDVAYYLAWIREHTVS

H4 = experiment: Luminescence Cell-Based Dose Response HTS to Identify Activators of 5'UTR Stem-Loop Driven Prion Protein mRNA Translation in H4 Neuroglioblastoma Cells. [Related pubchem assays: 1829 (Project Summary), 1814 (Primary HTS)]; assay type: functional; conditions: Homo sapiens
Beta-galactosidase = Beta-galactosidase (Escherichia coli, UniProt Q8VNN2); experiment: detection-enzyme interference by beta-gal modulators – biochemical, E. coli enzyme, set 3, artefact control for CCR6 antagonist project, dose response (AID 504712); assay type: functional
[1] = Luminescence Cell-Based Dose Retest to Confirm Inhibitors of Cancer Stem Cells. [Related pubchem assays (depositor defined):AID2717, AID2721]; assay type: functional; conditions: Homo sapiens
[2] = system: Streptococcus sp. 'group A'; experiment: Streptococcus pyogenes SK(-)GAS viability under kanamycin – luminescence, BacTiterGlo, confirmation, counter-screen for streptokinase expression inhibitor project, dose response (AID 1900); assay type: functional, organism-based
[3] = target: G-protein coupled receptor 55 (Homo sapiens, UniProt Q9Y2T6); experiment: inhibition of LPI-stimulated GPR55 beta-arrestin translocation – imaging, U2OS, beta-arrestin-GFP, LPI agonist, primary screen (AID 2013); assay type: functional;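 further: antagonist potency measured as reduced agonist-driven arrestin aggregation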
Sequence of G-protein coupled receptor 55 (Q9Y2T6 whole entry): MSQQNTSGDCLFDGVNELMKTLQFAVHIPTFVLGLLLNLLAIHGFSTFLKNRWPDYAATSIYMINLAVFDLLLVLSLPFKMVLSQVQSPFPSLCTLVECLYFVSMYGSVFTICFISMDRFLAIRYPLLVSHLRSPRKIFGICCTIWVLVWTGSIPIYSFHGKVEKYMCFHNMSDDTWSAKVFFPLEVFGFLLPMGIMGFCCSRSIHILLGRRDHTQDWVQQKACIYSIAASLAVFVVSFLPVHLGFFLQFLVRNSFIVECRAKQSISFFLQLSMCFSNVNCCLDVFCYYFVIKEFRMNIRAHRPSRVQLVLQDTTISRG

[4] = target: T2, Ubiquitin-conjugating enzyme E2 N (Homo sapiens, UniProt P61088); assay type: functional;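 further: Dose-response confirmation in a TR-FRET assay detecting UBC13-driven polyubiquitin chain formation, inhibition measured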
T2 sequence (P61088 whole entry): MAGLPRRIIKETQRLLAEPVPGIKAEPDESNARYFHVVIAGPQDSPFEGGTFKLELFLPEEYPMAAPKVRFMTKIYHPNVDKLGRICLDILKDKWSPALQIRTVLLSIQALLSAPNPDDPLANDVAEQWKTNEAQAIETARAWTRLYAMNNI

Streptococcus = experiment: GAS UMAA2166 growth inhibition – luminescence, BacTiterGlo, counter-screen for streptokinase expression inhibitor project, dose response (AID 1915); assay type: functional, organism-based;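 further: potency for reduction of bacterial viability or growth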
Streptokinase A = target: T3, Streptokinase A (Streptococcus pyogenes serotype M1, UniProt P10520); experiment: viability-normalized secreted streptokinase activity reduction – plasminogen activation absorbance, OD405, dose response (AID 1914); assay type: functional, Streptococcus pyogenes M1 GAS;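 further: secreted streptokinase activity via plasminogen activation per viability signal from cell pellet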
T3 sequence (P10520 whole entry): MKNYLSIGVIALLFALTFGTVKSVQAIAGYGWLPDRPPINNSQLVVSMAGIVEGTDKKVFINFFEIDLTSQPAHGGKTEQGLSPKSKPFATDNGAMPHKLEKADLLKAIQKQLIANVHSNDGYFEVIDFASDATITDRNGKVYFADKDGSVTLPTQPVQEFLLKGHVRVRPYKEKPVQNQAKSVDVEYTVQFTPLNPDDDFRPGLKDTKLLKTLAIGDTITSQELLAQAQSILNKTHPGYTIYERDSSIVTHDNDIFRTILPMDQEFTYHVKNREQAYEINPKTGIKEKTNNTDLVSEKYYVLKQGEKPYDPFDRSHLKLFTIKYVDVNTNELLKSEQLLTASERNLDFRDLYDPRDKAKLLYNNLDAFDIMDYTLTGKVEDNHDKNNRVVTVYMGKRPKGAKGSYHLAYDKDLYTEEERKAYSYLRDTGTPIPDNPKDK

[5] = target: T4, C-C chemokine receptor type 6 (Homo sapiens, UniProt P51684); experiment: antagonism of CCR6 beta-arrestin recruitment – cell-based, luminescent beta-arrestin readout, dose response (AID 504728); assay type: functional
T4 sequence (P51684 whole entry): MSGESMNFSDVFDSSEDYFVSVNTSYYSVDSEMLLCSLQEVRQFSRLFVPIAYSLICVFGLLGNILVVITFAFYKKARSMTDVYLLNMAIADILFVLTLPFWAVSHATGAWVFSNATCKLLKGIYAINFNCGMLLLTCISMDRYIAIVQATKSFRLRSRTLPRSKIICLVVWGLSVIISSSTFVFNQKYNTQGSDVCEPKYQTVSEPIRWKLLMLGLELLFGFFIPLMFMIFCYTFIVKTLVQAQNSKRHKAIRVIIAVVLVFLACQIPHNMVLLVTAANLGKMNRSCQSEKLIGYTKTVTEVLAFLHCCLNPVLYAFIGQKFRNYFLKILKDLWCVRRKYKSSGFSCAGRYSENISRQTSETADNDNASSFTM

[6] = target: Envelope glycoprotein gp160 (Human immunodeficiency virus 1, UniProt Q6QLK5); experiment: cell-free HIV fusion peptide-binding blockers – biochemical, uHTS, fluorescence dequenching, […] (AID 1986)
Sequence of Envelope glycoprotein gp160 (Q6QLK5 whole entry, the tested form may be a part): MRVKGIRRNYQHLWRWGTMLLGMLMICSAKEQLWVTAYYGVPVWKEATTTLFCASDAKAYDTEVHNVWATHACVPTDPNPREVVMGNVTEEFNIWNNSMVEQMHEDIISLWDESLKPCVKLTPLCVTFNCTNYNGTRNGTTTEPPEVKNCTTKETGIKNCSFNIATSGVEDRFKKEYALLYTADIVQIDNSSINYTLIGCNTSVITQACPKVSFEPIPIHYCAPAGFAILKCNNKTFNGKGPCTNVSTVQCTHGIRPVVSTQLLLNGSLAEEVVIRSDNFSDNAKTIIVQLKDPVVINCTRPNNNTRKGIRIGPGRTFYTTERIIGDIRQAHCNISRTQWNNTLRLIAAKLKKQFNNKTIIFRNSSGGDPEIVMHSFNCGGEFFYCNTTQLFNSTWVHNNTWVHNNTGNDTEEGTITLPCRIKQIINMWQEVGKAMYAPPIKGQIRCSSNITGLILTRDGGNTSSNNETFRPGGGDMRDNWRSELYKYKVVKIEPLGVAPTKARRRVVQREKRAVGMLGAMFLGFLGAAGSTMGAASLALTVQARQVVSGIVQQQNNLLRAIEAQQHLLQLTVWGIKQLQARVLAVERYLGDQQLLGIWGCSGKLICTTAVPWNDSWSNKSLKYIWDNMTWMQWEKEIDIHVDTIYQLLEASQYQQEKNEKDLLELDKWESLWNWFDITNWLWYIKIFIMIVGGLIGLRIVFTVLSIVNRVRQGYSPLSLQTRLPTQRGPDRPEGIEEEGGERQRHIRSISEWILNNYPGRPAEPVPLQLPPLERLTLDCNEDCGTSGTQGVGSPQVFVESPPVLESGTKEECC

[7] = Intein inhibitors as potential Tuberculosis drugs, a cytotoxicity screen. [Related pubchem assays (depositor defined):AID2221, AID2223, AID434968, AID435010, AID449749, AID449750, AID489010]; assay type: functional
Fatty acid synthase [8] = target: T5, Fatty acid synthase (Homo sapiens, UniProt P49327); experiment: inhibition of human FAS-TE enzyme activity – biochemical, kinetic fluorescence intensity, dose response (AID 624326); assay type: functional;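 further: rate of fluorescence rise from hydrolysis of a fluorogenic O-methyl fluorescein ester substrate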
T5 sequence (P49327 whole entry): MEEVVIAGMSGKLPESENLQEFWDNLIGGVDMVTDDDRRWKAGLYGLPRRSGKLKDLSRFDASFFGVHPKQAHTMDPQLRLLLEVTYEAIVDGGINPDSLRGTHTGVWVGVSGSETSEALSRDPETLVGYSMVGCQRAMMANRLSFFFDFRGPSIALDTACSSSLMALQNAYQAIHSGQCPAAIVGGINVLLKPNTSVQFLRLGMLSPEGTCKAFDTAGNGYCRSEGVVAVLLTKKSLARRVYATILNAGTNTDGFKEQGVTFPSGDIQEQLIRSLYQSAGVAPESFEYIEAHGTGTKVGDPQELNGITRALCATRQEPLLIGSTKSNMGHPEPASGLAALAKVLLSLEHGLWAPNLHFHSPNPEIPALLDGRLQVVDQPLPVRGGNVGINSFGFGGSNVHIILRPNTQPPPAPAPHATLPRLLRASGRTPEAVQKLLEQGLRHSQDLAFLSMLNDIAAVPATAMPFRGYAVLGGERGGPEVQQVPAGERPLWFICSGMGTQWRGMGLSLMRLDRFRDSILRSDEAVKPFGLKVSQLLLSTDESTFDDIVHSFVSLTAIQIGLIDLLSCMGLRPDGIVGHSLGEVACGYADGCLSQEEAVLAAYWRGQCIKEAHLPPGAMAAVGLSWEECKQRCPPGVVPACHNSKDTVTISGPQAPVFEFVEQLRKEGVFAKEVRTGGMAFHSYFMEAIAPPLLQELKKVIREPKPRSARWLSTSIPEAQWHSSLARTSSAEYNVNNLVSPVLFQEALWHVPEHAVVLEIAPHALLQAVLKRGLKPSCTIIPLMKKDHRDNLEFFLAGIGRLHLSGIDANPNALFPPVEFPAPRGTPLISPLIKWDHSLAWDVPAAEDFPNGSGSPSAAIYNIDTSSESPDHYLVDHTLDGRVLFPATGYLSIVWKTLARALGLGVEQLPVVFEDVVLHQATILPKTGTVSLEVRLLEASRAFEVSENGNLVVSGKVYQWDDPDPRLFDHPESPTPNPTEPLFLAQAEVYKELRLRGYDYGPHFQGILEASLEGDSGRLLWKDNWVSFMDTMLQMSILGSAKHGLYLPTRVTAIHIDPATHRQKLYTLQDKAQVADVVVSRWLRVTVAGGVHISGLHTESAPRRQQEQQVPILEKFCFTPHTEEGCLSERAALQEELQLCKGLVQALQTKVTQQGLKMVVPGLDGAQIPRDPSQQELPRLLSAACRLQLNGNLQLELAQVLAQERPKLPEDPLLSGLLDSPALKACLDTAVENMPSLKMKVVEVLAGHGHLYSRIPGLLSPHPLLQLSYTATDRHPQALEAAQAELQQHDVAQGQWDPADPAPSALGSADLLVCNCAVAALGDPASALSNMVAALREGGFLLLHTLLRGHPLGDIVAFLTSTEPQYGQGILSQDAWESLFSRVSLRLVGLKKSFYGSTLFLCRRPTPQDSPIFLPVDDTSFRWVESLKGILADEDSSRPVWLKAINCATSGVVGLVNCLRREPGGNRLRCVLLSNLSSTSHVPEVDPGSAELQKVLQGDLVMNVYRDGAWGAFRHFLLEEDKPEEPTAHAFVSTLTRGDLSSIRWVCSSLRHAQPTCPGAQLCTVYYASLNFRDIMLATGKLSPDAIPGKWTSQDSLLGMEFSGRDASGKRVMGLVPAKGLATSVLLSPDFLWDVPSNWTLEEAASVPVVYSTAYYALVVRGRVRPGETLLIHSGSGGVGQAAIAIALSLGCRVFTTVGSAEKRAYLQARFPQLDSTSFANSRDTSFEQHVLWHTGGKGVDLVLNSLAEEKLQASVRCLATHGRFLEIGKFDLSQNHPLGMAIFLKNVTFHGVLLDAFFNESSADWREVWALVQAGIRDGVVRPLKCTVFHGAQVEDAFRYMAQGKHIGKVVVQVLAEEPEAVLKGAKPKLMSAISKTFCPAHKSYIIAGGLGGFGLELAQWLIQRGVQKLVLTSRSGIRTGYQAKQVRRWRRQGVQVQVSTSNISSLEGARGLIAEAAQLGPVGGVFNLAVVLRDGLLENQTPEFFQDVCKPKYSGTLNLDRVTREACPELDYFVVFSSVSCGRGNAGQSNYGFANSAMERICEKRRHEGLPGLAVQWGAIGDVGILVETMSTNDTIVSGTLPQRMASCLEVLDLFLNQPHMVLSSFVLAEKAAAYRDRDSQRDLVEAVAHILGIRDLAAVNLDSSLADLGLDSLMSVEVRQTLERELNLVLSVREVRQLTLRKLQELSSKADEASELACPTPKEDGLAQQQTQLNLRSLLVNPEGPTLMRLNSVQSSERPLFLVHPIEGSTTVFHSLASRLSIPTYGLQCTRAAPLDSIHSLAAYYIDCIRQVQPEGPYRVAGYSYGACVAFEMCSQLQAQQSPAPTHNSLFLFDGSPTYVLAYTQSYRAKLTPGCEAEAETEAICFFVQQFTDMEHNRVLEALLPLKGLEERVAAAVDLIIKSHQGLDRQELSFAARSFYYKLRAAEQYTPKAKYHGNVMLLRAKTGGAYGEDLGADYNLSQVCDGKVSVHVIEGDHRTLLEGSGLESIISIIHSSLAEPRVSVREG

[9] = target: 26S proteasome non-ATPase regulatory subunit 14 (Homo sapiens, UniProt O00487); experiment: inhibition of proteasome subunit RPN11 – biochemical, fluorescence polarization, uHTS hits, confirmation (AID 602368); assay type: functional
Sequence of 26S proteasome non-ATPase regulatory subunit 14 (O00487 whole entry): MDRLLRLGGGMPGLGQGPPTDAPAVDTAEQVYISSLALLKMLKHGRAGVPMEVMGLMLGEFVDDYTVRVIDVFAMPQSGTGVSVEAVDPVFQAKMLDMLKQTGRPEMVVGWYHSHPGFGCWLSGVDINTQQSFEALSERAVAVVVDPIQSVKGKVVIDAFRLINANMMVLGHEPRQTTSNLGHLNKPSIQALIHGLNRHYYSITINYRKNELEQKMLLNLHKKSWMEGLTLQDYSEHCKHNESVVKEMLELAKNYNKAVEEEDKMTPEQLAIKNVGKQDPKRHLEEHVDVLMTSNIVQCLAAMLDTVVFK

Fatty acid synthase [10] = target: T5, Fatty acid synthase; experiment: inhibition of human FAS-TE enzyme activity – biochemical, endpoint fluorescence intensity, uHTS hits, dose response (AID 624327); assay type: functional;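 further: fluorescence from hydrolysis of an O-methyl fluorescein acyl ester substrate by the enzyme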
[11] = target: T6, Replicative DNA helicase DnaB (Mycobacterium tuberculosis, UniProt P9WMR3); experiment: DnaB intein splicing inhibitors, dose response, biochemical, cell-free fluorescence (AID 449749); assay type: functional
T6 sequence (P9WMR3 whole entry): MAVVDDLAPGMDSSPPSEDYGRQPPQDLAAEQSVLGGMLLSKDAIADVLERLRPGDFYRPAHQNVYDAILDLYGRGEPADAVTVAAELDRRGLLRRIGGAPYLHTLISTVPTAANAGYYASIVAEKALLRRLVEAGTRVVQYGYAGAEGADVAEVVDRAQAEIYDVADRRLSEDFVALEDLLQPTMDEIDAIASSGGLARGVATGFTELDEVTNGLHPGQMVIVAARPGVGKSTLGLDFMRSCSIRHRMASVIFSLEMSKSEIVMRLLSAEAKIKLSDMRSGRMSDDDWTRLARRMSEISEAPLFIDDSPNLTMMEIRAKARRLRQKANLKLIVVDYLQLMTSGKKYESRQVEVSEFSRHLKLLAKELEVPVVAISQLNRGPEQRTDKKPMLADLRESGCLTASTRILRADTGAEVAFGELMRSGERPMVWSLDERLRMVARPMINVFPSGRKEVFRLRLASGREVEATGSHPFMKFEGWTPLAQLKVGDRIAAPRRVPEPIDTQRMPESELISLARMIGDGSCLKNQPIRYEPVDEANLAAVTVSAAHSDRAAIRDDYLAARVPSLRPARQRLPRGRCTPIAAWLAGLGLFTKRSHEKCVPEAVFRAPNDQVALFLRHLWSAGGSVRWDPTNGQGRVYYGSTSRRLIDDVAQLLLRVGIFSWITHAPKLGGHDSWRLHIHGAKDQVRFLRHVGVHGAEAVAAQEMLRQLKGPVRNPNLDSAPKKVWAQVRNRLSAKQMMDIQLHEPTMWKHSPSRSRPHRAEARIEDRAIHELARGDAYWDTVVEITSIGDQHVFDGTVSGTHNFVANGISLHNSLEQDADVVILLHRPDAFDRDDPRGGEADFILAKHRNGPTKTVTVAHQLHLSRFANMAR

Protein RecA = target: T7, Protein RecA (Mycobacterium tuberculosis, UniProt P9WHJ3); experiment: Fluorescence Cell-Free Homogeneous Dose Retest to Identify Inhibitors of RecA-Intein Splicing Activity. [Related pubchem assays (depositor defined):AID2097, AID2223, AID489010, AID492950]; assay type: functional
T7 sequence (P9WHJ3 whole entry): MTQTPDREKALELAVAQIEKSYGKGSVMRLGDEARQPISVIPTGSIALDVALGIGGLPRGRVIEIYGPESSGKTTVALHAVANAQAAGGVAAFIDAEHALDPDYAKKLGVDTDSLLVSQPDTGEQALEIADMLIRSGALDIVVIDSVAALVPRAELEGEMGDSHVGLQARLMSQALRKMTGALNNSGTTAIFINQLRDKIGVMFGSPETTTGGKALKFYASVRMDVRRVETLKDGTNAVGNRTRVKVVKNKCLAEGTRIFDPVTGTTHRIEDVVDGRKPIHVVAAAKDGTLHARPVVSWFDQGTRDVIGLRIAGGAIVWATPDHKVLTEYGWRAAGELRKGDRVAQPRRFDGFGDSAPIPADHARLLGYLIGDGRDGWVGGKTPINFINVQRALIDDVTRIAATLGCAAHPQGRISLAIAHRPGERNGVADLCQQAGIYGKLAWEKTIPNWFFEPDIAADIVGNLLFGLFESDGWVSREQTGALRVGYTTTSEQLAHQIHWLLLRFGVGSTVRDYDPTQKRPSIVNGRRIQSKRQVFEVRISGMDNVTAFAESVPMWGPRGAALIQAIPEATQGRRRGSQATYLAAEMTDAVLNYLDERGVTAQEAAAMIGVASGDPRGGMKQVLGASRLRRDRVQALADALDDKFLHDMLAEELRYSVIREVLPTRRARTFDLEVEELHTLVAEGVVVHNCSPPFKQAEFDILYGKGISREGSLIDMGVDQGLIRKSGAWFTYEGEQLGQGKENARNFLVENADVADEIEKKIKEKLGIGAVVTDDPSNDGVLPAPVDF

[12] = target: 72 kDa type IV collagenase (Homo sapiens, UniProt P08253); experiment: Dose Response validation of uHTS RPN11 inhibitor hits using a MMP-2 Fluorescence assay.; assay type: functional
Sequence of 72 kDa type IV collagenase (P08253 whole entry, the tested form may be a part): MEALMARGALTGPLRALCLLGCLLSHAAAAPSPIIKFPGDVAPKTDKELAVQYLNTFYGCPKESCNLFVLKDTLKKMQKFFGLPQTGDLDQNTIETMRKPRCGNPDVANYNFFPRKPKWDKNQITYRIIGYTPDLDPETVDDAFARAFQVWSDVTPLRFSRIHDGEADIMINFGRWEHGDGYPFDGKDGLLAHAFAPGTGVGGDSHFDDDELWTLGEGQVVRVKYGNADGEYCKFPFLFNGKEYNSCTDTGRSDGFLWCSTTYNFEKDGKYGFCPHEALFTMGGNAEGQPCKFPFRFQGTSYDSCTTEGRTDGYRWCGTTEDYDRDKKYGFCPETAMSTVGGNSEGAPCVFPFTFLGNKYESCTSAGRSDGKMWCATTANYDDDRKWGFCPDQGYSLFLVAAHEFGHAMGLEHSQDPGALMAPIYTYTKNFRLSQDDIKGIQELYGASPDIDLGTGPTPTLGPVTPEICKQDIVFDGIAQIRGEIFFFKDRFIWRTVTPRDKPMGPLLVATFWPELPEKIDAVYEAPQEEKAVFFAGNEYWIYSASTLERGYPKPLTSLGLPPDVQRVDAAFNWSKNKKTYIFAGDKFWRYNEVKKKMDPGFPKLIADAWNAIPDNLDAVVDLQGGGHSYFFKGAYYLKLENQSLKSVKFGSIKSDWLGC

[13] = CCR5-tropic HIV-1 fusion blockers – cell-based, CCR5-tropic Env, dose response (AID 2279); assay type: functional
Prothrombin = Prothrombin (Bos taurus, UniProt P00735); experiment: thrombin protease inhibitors – biochemical, fluorescence polarization, uHTS hits, dose response (AID 602369); assay type: functional
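Wherever CC50 is given: cells exposed to compound for 72 hours before luminescence readout.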

With `COc1ccc(Cn2c(C3CC3)nc3ccc(NC(=O)C4CC4)cc3c2=O)cc1` the IC50 (Coagulation factor XII) was > 50 µM (inactive) and the EC50 (H4) was 0.679 µM (active).

For `Cc1c(CCOC(=O)C2C3CC4CC(C3)CC2C4)sc[n+]1CC(=O)c1ccc(Br)cc1` (configuration not stated), the IC50 (Beta-galactosidase) was > 66.6 µM (inactive), the AC50 [1] was 2.17 µM (active) and the EC50 [2] was 8.85 µM (active). For the same compound, the IC50 [3] was 3.25 µM (active), the IC50 [4] was > 20 µM (inactive) and the EC50 (Streptococcus) was > 150 µM (not active). For the same compound, the EC50 (Streptokinase A) was 21.9 µM (active) and the IC50 [5] was 27 µM (inactive).

For `O=C1NC(=S)N(C2CCCCC2)C(=O)/C1=C/NNC(=O)c1ccccc1O`, the IC50 [6] was 17.7 µM (active), the CC50 [7] was 31.2 µM (active) and the IC50 (Fatty acid synthase [8]) was 18.2 µM (active). For the same compound, the EC50 [2] was 0.725 µM (active), the IC50 [9] was 36.7 µM (active) and the IC50 (Fatty acid synthase [10]) was 31.1 µM (inactive). For the same compound, the EC50 (Streptococcus) was 2.18 µM (active), the AC50 [11] was 3.25 µM (active) and the EC50 (Protein RecA) was 4.6 µM (active). For the same compound, the IC50 [12] was > 100 µM (inactive), the IC50 [13] was 33.7 µM (active) and the IC50 (Prothrombin) was 93.6 µM (active).
